Test results as given in patent US20020016384A1, “Hydrolysis-stable and polymerizable acrylophosphonic acid” (Ivoclar Vivadent AG., priority 2000, published 2002).

Legend:
[1] = Investigation of the solubility in water and organic solvents; type: physicochemical
Source text: The solubility of monomers 3 and 5 and of a comparison monomer (comparison monomer 2; X=COO, Z=H) in water, ethanol, acetone, methylene chloride and ethyl acetate was investigated.
Solubility: ++: very good (>20 wt.-%), +: good (10-20 wt.-%), 0: practically insoluble (<1 wt.-%). [drawing 25]

[2] = Investigation of the hydrolytic stability by 1H-NMR; type: physicochemical; conditions: 20% solution in 1:1 water/ethanol; for change in the 1H-NMR spectrum (hydrolytic stability): stored at 37° C., 12-week investigation period, spectrum recorded weekly
Description: Monomers 3 and 5 are each dissolved in a 1:1 mixture of water and ethanol and stored as 20% solution at 37° C. The ^1H-NMR spectrum of the solution is recorded weekly.

| Structure (SMILES) | Solubility in acetone [1] | Solubility in ethanol [1] | Solubility in ethyl acetate [1] | Solubility in methylene chloride [1] | Solubility in water [1] | change in the 1H-NMR spectrum (hydrolytic stability) [2] | hydrolytic elimination of the ethoxy group ([2]; 37° C., after 3 months, 1H-NMR) [%] |
| --- | --- | --- | --- | --- | --- | --- | --- |
| C=C(COCCP(=O)(O)O)C(=O)O [Comparison monomer 2, reference compound] | 0 (practically insoluble (<1 wt.-%)) | 0 (practically insoluble (<1 wt.-%)) | 0 (practically insoluble (<1 wt.-%)) | 0 (practically insoluble (<1 wt.-%)) | ++ (very good (>20 wt.-%)) |  |  |
| C=C(COCCP(=O)(O)O)C(=O)N(CC)CC [Monomer 3, 2-[4-(dihydroxyphosphoryl)-2-oxabutyl]-acrylic acid diethylamide] | ++ (very good (>20 wt.-%)) | ++ (very good (>20 wt.-%)) | ++ (very good (>20 wt.-%)) | ++ (very good (>20 wt.-%)) | ++ (very good (>20 wt.-%)) | no change in the spectrum |  |
| C=C(C#N)COCCP(=O)(O)O [Monomer 5, 2-[4-(dihydroxyphosphoryl)-2-oxabutyl]-acrylonitrile] | ++ (very good (>20 wt.-%)) | ++ (very good (>20 wt.-%)) | ++ (very good (>20 wt.-%)) | ++ (very good (>20 wt.-%)) | ++ (very good (>20 wt.-%)) | no change in the spectrum |  |
| C=C(COCCP(=O)(OC)OC)C(=O)OCC [comparison monomer 1, 2-[4-(dimethoxyphosphoryl)-2-oxa-butyl]-acrylic acid ethyl ester, reference compound] |  |  |  |  |  |  | 20 |
